# pEC50: −log10 of the molar value. Starred links: 1 amine or outer side, 2 acyl side, 3 side chain; linkers in the order of their positions; H or OH if unused. Non-standard residues stand in square brackets, D forms with d. Residues, ends and D or L forms follow the SMILES beside them. Groups on a side chain read outwards from the residue. *: point of attachment. C20 diacid = O=C(O)CCCCCCCCCCCCCCCCCCC(=O)*; C18 diacid = O=C(O)CCCCCCCCCCCCCCCCC(=O)*; γGlu = O=C(O)[C@H](CCC(=O)[*:2])N[*:1]; Palmitoyl = CCCCCCCCCCCCCCCC(=O)*; NMeI = CC[C@H](C)[C@H](NC)C(=O)O; AEEA = NCCOCCOCC(=O)O
# Molecular target: T1, human CRHR2b (Homo sapiens, UniProt Q13324)
# T1 construct: expressed in transfected cells; host or cells: Chinese Hamster Ovary (CHO) cells, transient transfection
# T1 sequence (Q13324 1-438 isoform Q13324-2): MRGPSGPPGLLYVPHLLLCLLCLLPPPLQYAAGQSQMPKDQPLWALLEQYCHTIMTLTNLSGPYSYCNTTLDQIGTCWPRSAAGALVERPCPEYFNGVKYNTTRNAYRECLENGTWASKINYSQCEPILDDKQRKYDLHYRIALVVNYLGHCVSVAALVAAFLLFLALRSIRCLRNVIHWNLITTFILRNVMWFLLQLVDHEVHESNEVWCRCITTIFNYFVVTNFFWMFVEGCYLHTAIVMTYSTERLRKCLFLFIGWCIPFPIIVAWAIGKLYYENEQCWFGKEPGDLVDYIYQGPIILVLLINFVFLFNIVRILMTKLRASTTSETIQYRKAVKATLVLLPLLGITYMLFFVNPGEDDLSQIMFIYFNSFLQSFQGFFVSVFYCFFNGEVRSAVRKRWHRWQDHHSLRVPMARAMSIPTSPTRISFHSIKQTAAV
# Assay: human CRHR2b cell-based cAMP assay
# Details: cAMP assay; Table 26, compounds of Example 9; read-out: hCRHR2b Average EC50
# Method in brief: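 ED50 values are means ± SEM over several runs, curve-fitted from cAMP in pmol, calibrated against unlabeled-cAMP standards. Detection was HTRF competition, ratio 665/620 nm, after 30 min agonist exposure at 37 °C.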
row,SMILES,pEC50
1,CC[C@H](C)[C@H](NC)C(=O)N[C@H](C(=O)N[C@@H](CC(C)C)C(=O)N[C@@H](CO)C(=O)N[C@@H](CC(C)C)C(=O)N[C@@H](CC(=O)O)C(=O)N[C@H](C(=O)N1CCC[C@H]1C(=O)N[C@H](C(=O)NCC(=O)N[C@@H](CC(C)C)C(=O)N[C@@H](CC(C)C)C(=O)N[C@@H](CCC(N)=O)C(=O)N[C@H](C(=O)N[C@@H](CC(C)C)C(=O)N[C@@H](CC(C)C)C(=O)N[C@@H](CCC(=O)O)C(=O)N[C@@H](CCC(N)=O)C(=O)N[C@@H](CCC(=O)O)C(=O)N[C@@H](CCCCN)C(=O)N[C@@H](CCC(N)=O)C(=O)N[C@@H](CCC(=O)O)C(=O)N[C@@H](CCCCN)C(=O)N[C@@H](CCC(=O)O)C(=O)N[C@@H](CCCCN)C(=O)N[C@@H](CCC(N)=O)C(=O)N[C@@H](CCC(N)=O)C(=O)N[C@@H](C)C(=O)N[C@@H](CCCCNC(=O)CC[C@H](NC(=O)COCCOCCNC(=O)COCCOCCNC(=O)CC[C@H](NC(=O)CC[C@H](NC(=O)CCCCCCCCCCCCCCCCCCC(=O)O)C(=O)O)C(=O)O)C(=O)O)C(=O)N[C@H](C(=O)N[C@@H](CC(N)=O)C(=O)N[C@@H](C)C(=O)N[C@@H](CCC(N)=O)C(=O)N[C@H](C(=O)N[C@@H](CC(C)C)C(=O)N[C@@H](C)C(=O)N[C@@H](CCC(N)=O)C(=O)N[C@H](C(N)=O)C(C)C)[C@@H](C)CC)[C@@H](C)O)[C@@H](C)CC)[C@@H](C)CC)C(C)C)C(C)C [Compound 60] (H-[NMeI]VLSLDVPIGLLQILLEQEKQEKEKQQAK([γGlu-AEEA-AEEA-γGlu-γGlu-C20 diacid])TNAQILAQV-NH2),8.59
2,CC[C@H](C)[C@H](N)C(=O)N[C@H](C(=O)N[C@@H](CC(C)C)C(=O)N[C@@H](CO)C(=O)N[C@@H](CC(C)C)C(=O)N[C@@H](CC(=O)O)C(=O)N[C@H](C(=O)N1CCC[C@H]1C(=O)N[C@H](C(=O)NCC(=O)N[C@@H](CC(C)C)C(=O)N[C@@H](CC(C)C)C(=O)N[C@@H](CCC(N)=O)C(=O)N[C@H](C(=O)N[C@@H](CC(C)C)C(=O)N[C@@H](CCCCNC(=O)COCCOCCNC(=O)COCCOCCNC(=O)CC[C@H](NC(=O)CC[C@H](NC(=O)CCCCCCCCCCCCCCCCC(=O)O)C(=O)O)C(=O)O)C(=O)N[C@@H](CCC(=O)O)C(=O)N[C@@H](CCC(N)=O)C(=O)N[C@@H](CCC(=O)O)C(=O)N[C@@H](CCCCN)C(=O)N[C@@H](CCC(N)=O)C(=O)N[C@@H](CCC(=O)O)C(=O)N[C@@H](CCCCN)C(=O)N[C@@H](CCC(=O)O)C(=O)N[C@@H](CCCCN)C(=O)N[C@@H](CCC(N)=O)C(=O)N[C@@H](CCC(N)=O)C(=O)N[C@@H](C)C(=O)N[C@H](C(=O)N[C@H](C(=O)N[C@@H](CC(N)=O)C(=O)N[C@@H](C)C(=O)N[C@@H](CCC(N)=O)C(=O)N[C@H](C(=O)N[C@@H](CC(C)C)C(=O)N[C@@H](C)C(=O)N[C@@H](Cc1c[nH]cn1)C(=O)N[C@H](C(N)=O)C(C)C)[C@@H](C)CC)[C@@H](C)O)[C@@H](C)O)[C@@H](C)CC)[C@@H](C)CC)C(C)C)C(C)C [Compound 42] (H-IVLSLDVPIGLLQILK([AEEA-AEEA-γGlu-γGlu-C18 diacid])EQEKQEKEKQQATTNAQILAHV-NH2),6.30
3,CC[C@H](C)[C@H](N)C(=O)N[C@H](C(=O)N[C@@H](CC(C)C)C(=O)N[C@@H](CO)C(=O)N[C@@H](CC(C)C)C(=O)N[C@@H](CC(=O)O)C(=O)N[C@H](C(=O)N1CCC[C@H]1C(=O)N[C@H](C(=O)NCC(=O)N[C@@H](CC(C)C)C(=O)N[C@@H](CC(C)C)C(=O)N[C@@H](CCC(N)=O)C(=O)N[C@H](C(=O)N[C@@H](CC(C)C)C(=O)N[C@@H](CC(C)C)C(=O)N[C@@H](CCC(=O)O)C(=O)N[C@@H](CCC(N)=O)C(=O)N[C@@H](CCC(=O)O)C(=O)N[C@@H](CCCCN)C(=O)N[C@@H](CCC(N)=O)C(=O)N[C@@H](CCC(=O)O)C(=O)N[C@@H](CCCCN)C(=O)N[C@@H](CCC(=O)O)C(=O)N[C@@H](CCCCN)C(=O)N[C@@H](CCC(N)=O)C(=O)N[C@@H](CCC(N)=O)C(=O)N[C@@H](C)C(=O)N[C@@H](CCCCNC(=O)COCCOCCNC(=O)COCCOCCNC(=O)CC[C@H](NC(=O)CC[C@H](NC(=O)CCCCCCCCCCCCCCCCC(=O)O)C(=O)O)C(=O)O)C(=O)N[C@@H](CCC(=O)O)C(=O)N[C@@H](CC(N)=O)C(=O)N[C@@H](C)C(=O)N[C@@H](CCC(N)=O)C(=O)N[C@H](C(=O)N[C@@H](CC(C)C)C(=O)N[C@@H](C)C(=O)N[C@@H](CCC(N)=O)C(=O)N[C@H](C(N)=O)C(C)C)[C@@H](C)CC)[C@@H](C)CC)[C@@H](C)CC)C(C)C)C(C)C [Compound 55] (H-IVLSLDVPIGLLQILLEQEKQEKEKQQAK([AEEA-AEEA-γGlu-γGlu-C18 diacid])ENAQILAQV-NH2),8.82

# Continued, values first:
row,pEC50,SMILES
1,7.91,CCCCCCCCCCCCCCCC(=O)N[C@@H](CCC(=O)NCCCC[C@H](NC(=O)[C@H](CCC(=O)O)NC(=O)[C@H](CCCCN)NC(=O)[C@H](CCC(=O)O)NC(=O)[C@H](CCC(N)=O)NC(=O)[C@H](CCCCN)NC(=O)[C@H](CCC(=O)O)NC(=O)[C@H](CCC(N)=O)NC(=O)[C@H](CCC(=O)O)NC(=O)[C@H](CC(C)C)NC(=O)[C@H](CC(C)C)NC(=O)[C@@H](NC(=O)[C@H](CCC(N)=O)NC(=O)[C@H](CC(C)C)NC(=O)[C@H](CC(C)C)NC(=O)CNC(=O)[C@@H](NC(=O)[C@@H]1CCCN1C(=O)[C@@H](NC(=O)[C@H](CC(=O)O)NC(=O)[C@H](CC(C)C)NC(=O)[C@H](CO)NC(=O)[C@H](CC(C)C)NC(=O)[C@@H](NC(=O)[C@@H](N)[C@@H](C)CC)C(C)C)C(C)C)[C@@H](C)CC)[C@@H](C)CC)C(=O)N[C@@H](CCC(N)=O)C(=O)N[C@@H](CCC(N)=O)C(=O)N[C@@H](C)C(=O)N[C@H](C(=O)N[C@H](C(=O)N[C@@H](CC(N)=O)C(=O)N[C@@H](C)C(=O)N[C@@H](CCCNC(=N)N)C(=O)N[C@H](C(=O)N[C@@H](CC(C)C)C(=O)N[C@@H](C)C(=O)N[C@@H](CCCNC(=N)N)C(=O)N[C@H](C(N)=O)C(C)C)[C@@H](C)CC)[C@@H](C)O)[C@@H](C)O)C(=O)O [Compound 30] (H-IVLSLDVPIGLLQILLEQEKQEKEK([γGlu-Palmitoyl])QQATTNARILARV-NH2)
2,7.60,"CCCCCCCCCCCCCCCC(=O)N[C@@H](CCC(=O)NCCCC[C@H](NC(=O)[C@H](CCC(N)=O)NC(=O)[C@H](CCC(=O)O)NC(=O)[C@H](CC(C)C)NC(=O)[C@H](CC(C)C)NC(=O)[C@@H](NC(=O)[C@H](CCC(N)=O)NC(=O)[C@H](CC(C)C)NC(=O)[C@H](CC(C)C)NC(=O)CNC(=O)[C@@H](NC(=O)[C@@H]1CCCN1C(=O)[C@@H](NC(=O)[C@H](CC(=O)O)NC(=O)[C@H](CC(C)C)NC(=O)[C@H](CO)NC(=O)[C@H](CC(C)C)NC(=O)[C@@H](NC(=O)[C@@H](N)[C@@H](C)CC)C(C)C)C(C)C)[C@@H](C)CC)[C@@H](C)CC)C(=O)N[C@@H](CCCCN)C(=O)N[C@@H](CCC(N)=O)C(=O)N[C@@H](CCC(=O)O)C(=O)N[C@@H](CCCCN)C(=O)N[C@@H](CCC(=O)O)C(=O)N[C@@H](CCCCN)C(=O)N[C@@H](CCC(N)=O)C(=O)N[C@@H](CCC(N)=O)C(=O)N[C@@H](C)C(=O)N[C@H](C(=O)N[C@H](C(=O)N[C@@H](CC(N)=O)C(=O)N[C@@H](C)C(=O)N[C@@H](CCCNC(=N)N)C(=O)N[C@H](C(=O)N[C@@H](CC(C)C)C(=O)N[C@@H](C)C(=O)N[C@@H](CCCNC(=N)N)C(=O)N[C@H](C(N)=O)C(C)C)[C@@H](C)CC)[C@@H](C)O)[C@@H](C)O)C(=O)O [Compound 24, IVLSLDVPIGLLQILLEQK*KQEKEKQQATTNARILARV-NH2] (H-IVLSLDVPIGLLQILLEQK([γGlu-Palmitoyl])KQEKEKQQATTNARILARV-NH2)"
